Source: patent US9670227B2, “Thienopyrimidine derivatives, a process for their preparation and pharmaceutical compositions containing them” (LES LABORATOIRES SERVIER, priority 2013, dated 2017)
Like-named read-outs stand apart in the source and are kept apart here.

How the values were obtained:
[1] = target: Mcl-1 protein (UniProtKB primary accession number: Q07820) (Homo sapiens, UniProt Q07820); experiment: Inhibition of Mcl-1 by fluorescence polarisation, Method 1; format: binding; conditions: read-out: IC50 (M) Mcl-1 FP
In short: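 Compounds were tested as 11-point serial dilutions at 5% final DMSO against 5 nM Mcl-1 with 1 nM fluorescein-labelled ligand in 10 mM HEPES, 150 mM NaCl, 0.05% Tween 20, pH 7.4. Relative binding potency was read by fluorescence polarisation.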

[2] = test system: H929 multiple myeloma tumour line; experiment: In vitro cytotoxicity, Microculture Tetrazolium Assay; format: cell-based; conditions: H929 cells, 48 hours exposure, MTT, read-out: IC50 (μM) MTT H929
Experimental: The cytotoxicity studies were carried out on the H929 multiple myeloma tumour line.
The cells are distributed onto microplates and exposed to the test compounds for 48 hours.

[3] = test system: AMO-1 multiple myeloma cells; experiment: Quantification of the cleaved form of PARP in vivo (MSD ELISA, tumour lysates); parameters: species or system mice (SCID strain); conditions: activation factor: cleaved PARP in treated mice / control mice, AMO-1 xenograft in SCID mice, intraveinous or oral routes
Experimental: The ability of the compounds of the invention to induce apoptosis, by measuring cleaved PARP levels, is evaluated in a xenograft model of AMO-1 multiple myeloma cells. 1.10^7 AMO-1 cells are grafted sub-cutaneously into immunosuppressed mice (SCID strain). 12 to 14 days after the graft, the animals are treated by intraveinous or oral routes with the various compounds. After treatment, the tumour masses are recovered and lysed, and the cleaved form of PARP is quantified in the tumour lysates.
The quantification is carried out using the “Meso Scale Discovery (MSD) ELISA platform” test, which specifically assays the cleaved form of PARP. It is expressed in the form of an activation factor corresponding to the ratio between the quantity of cleaved PARP in the treated mice divided by the quantity of cleaved PARP in the control mice.

[4] = fluorescence polarisation test, Method 2 values are underlined in the patent (underlining not visible here)
[5] = fluorescence polarisation, Method 1, or Method 2

Sequence of Mcl-1 protein (Q07820 whole entry): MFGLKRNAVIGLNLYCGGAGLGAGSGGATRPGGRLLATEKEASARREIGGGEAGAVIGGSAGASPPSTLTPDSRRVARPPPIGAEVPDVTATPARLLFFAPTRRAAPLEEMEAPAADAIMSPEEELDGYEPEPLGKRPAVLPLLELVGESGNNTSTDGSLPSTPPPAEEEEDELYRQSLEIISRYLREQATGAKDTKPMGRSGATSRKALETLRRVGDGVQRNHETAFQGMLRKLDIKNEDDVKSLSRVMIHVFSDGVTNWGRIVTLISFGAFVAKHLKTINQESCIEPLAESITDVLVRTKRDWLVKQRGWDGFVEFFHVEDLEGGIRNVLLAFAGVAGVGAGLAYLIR

Structure (SMILES)	IC50 [1, 4] [M]	IC50 [1, 5] [M]	IC50 ([2]; Homo sapiens, NCI-H929, 48 h) [µM]	PARP fold [3] [fold]	IC50 [2] [µM]
Cc1c(-c2c(-c3ccc(F)o3)sc3ncnc(OC(Cc4ccccc4OCc4ccnc(C5CC5)n4)C(=O)O)c23)ccc(OCCN2CCN(C)CC2)c1Cl [Example 170, (2R)-2-{[(5Sa)-5-{3-chloro-2-methyl-4-[2-(4-methylpiperazin-1-yl)ethoxy]phenyl}-6-(5-fluorofuran-2-yl)thieno[2,3-d]pyrimidin-4-yl]oxy}-3-{2-[(2-cyclopropylpyrimidin-4-yl)methoxy]phenyl}propanoic acid]	5.3e-09		0.006	144	
Cc1c(-c2c(-c3ccc(F)o3)sc3ncnc(OC(Cc4ccccc4OCc4ccnc(-c5cccs5)n4)C(=O)O)c23)ccc(OCCN2CCN(C)CC2)c1Cl [Example 171, (2R)-2-{[(5Sa)-5-{3-chloro-2-methyl-4-[2-(4-methylpiperazin-1-yl)ethoxy]phenyl}-6-(5-fluorofuran-2-yl)thieno[2,3-d]pyrimidin-4-yl]oxy}-3-(2-{[2-(thiophen-2-yl)pyrimidin-4-yl]methoxy}phenyl)propanoic acid]	4.1e-09		0.003	207.4	
COCCOc1ccccc1CC(Oc1ncnc2sc(-c3ccco3)c(-c3ccc(OCCN4CCN(C)CC4)c(Cl)c3C)c12)C(=O)O [Example 290, (2R)-2-{[(5Sa)-5-{3-chloro-2-methyl-4-[2-(4-methylpiperazin-1-yl)ethoxy]phenyl}-6-(furan-2-yl)thieno[2,3-d]pyrimidin-4-yl]oxy}-3-[2-(2-methoxyethoxy)phenyl]propanoic acid]	5.8e-09		0.097	121	
CC#Cc1sc2ncnc(O[C@H](Cc3ccccc3OCc3ccnc(-c4ccncc4C)n3)C(=O)O)c2c1-c1ccc(OCCN2CCN(C)CC2)c(Cl)c1C [Example 483, (2R)-2-{[(5Sa)-5-{3-chloro-2-methyl-4-[2-(4-methylpiperazin-1-yl)ethoxy]phenyl}-6-(prop-1-yn-1-yl)thieno[2,3-d]pyrimidin-4-yl]oxy}-3-(2-{[2-(3-methylpyridin-4-yl)pyrimidin-4-yl]methoxy}phenyl)propanoic acid]		5.2e-09		411	0.003
CC#Cc1sc2ncnc(OC(Cc3ccccc3OCc3ccnc(N4CCOCC4)n3)C(=O)O)c2c1-c1ccc(OCCN2CCN(C)CC2)c(Cl)c1C [Example 485, (2R)-2-{[(5Sa)-5-{3-chloro-2-methyl-4-[2-(4-methylpiperazin-1-yl)ethoxy]phenyl}-6-(prop-1-yn-1-yl)thieno[2,3-d]pyrimidin-4-yl]oxy}-3-(2-{[2-(morpholin-4-yl)pyrimidin-4-yl]methoxy}phenyl)propanoic acid]		4.3e-09	0.012	110.8	
CC#Cc1sc2ncnc(OC(Cc3ccccc3OCc3ccnc(OCC(F)(F)F)n3)C(=O)O)c2c1-c1ccc(OCCN2CCN(C)CC2)c(Cl)c1C [Example 487, (2R)-2-{[(5Sa)-5-{3-chloro-2-methyl-4-[2-(4-methylpiperazin-1-yl)ethoxy]phenyl}-6-(prop-1-yn-1-yl)thieno[2,3-d]pyrimidin-4-yl]oxy}-3-(2-{[2-(2,2,2-trifluoroethoxy)pyrimidin-4-yl]methoxy}phenyl)propanoic acid]		6.5e-09	0.004	141.4	
CC#Cc1sc2ncnc(OC(Cc3ccccc3OCc3ccnn3C(C)(C)C)C(=O)O)c2c1-c1ccc(OCCN2CCN(C)CC2)c(Cl)c1C [Example 488, (2R)-3-{2-[(1-tert-butyl-1H-pyrazol-5-yl)methoxy]phenyl}-2-{[(5Sa)-5-{3-chloro-2-methyl-4-[2-(4-methylpiperazin-1-yl)ethoxy]phenyl}-6-(prop-1-yn-1-yl)thieno[2,3-d]pyrimidin-4-yl]oxy}propanoic acid]		5.4e-09	0.014	175.5	
CC#Cc1sc2ncnc(OC(Cc3ccccc3OCc3ccnn3CC(F)(F)F)C(=O)O)c2c1-c1ccc(OCCN2CCN(C)CC2)c(Cl)c1C [Example 489, (2R)-2-{[(5Sa)-5-{3-chloro-2-methyl-4-[2-(4-methylpiperazin-1-yl)ethoxy]phenyl}-6-(prop-1-yn-1-yl)thieno[2,3-d]pyrimidin-4-yl]oxy}-3-(2-{[1-(2,2,2-trifluoroethyl)-1H-pyrazol-5-yl]methoxy}phenyl)propanoic acid]		1.2e-09	0.026	233.2	
Cc1c(-c2c(-c3ccc(F)cc3)sc3ncnc(OC(Cc4ccccc4OCc4ccnc(-c5ccccc5OC(C)C)n4)C(=O)O)c23)ccc(OCCN2CCN(C)CC2)c1Cl [Example 723, (2R)-2-{[(5Sa)-5-{3-chloro-2-methyl-4-[2-(4-methylpiperazin-1-yl)ethoxy]phenyl}-6-(4-fluorophenyl)thieno[2,3-d]pyrimidin-4-yl]oxy}-3-[2-({2-[2-(propan-2-yloxy)phenyl]pyrimidin-4-yl}methoxy)phenyl]propanoic acid]		1.18e-09	0.004	191.2	
COCCOc1ccccc1-c1nccc(COc2ccccc2CC(Oc2ncnc3sc(-c4ccc(F)cc4)c(-c4ccc(OCCN5CCN(C)CC5)c(Cl)c4C)c23)C(=O)O)n1 [Example 724, (2R)-2-{[(5Sa)-5-{3-chloro-2-methyl-4-[2-(4-methylpiperazin-1-yl)ethoxy]phenyl}-6-(4-fluorophenyl)thieno[2,3-d]pyrimidin-4-yl]oxy}-3-[2-({2-[2-(2-methoxyethoxy)phenyl]pyrimidin-4-yl}methoxy)phenyl]propanoic acid]		9.48e-10	0.002	188.9	

Further lines, with some results ahead:

IC50 [1, 4] [M]	IC50 [1, 5] [M]	Structure (SMILES)	IC50 ([2]; Homo sapiens, NCI-H929, 48 h) [µM]	PARP fold [3] [fold]	IC50 [2] [µM]
2.8e-09		CCOc1nccc(COc2ccccc2CC(Oc2ncnc3sc(-c4ccc(F)o4)c(-c4ccc(OCCN5CCN(C)CC5)c(Cl)c4C)c23)C(=O)O)n1 [Example 177, (2R)-2-{[(5Sa)-5-{3-chloro-2-methyl-4-[2-(4-methylpiperazin-1-yl)ethoxy]phenyl}-6-(5-fluorofuran-2-yl)thieno[2,3-d]pyrimidin-4-yl]oxy}-3-{2-[(2-ethoxypyrimidin-4-yl)methoxy]phenyl}propanoic acid]	0.005	233.8	
7.7e-09		Cc1cnccc1-c1nccc(COc2ccccc2CC(Oc2ncnc3sc(-c4ccc(F)o4)c(-c4ccc(OCCN5CCN(C)CC5)c(Cl)c4C)c23)C(=O)O)n1 [Example 198, (2R)-2-{[(5Sa)-5-{3-chloro-2-methyl-4-[2-(4-methylpiperazin-1-yl)ethoxy]phenyl}-6-(5-fluorofuran-2-yl)thieno[2,3-d]pyrimidin-4-yl]oxy}-3-(2-{[2-(3-methylpyridin-4-yl)pyrimidin-4-yl]methoxy}phenyl)propanoic acid]	0.002	280	
3.5e-09		Cc1c(-c2c(-c3ccc(F)o3)sc3ncnc(OC(Cc4ccccc4OCc4ccnc(N5CCOCC5)n4)C(=O)O)c23)ccc(OCCN(C)C)c1Cl [Example 202, (2R)-2-{[(5Sa)-5-{3-chloro-4-[2-(dimethylamino)ethoxy]-2-methylphenyl}-6-(5-fluorofuran-2-yl)thieno[2,3-d]pyrimidin-4-yl]oxy}-3-(2-{[2-(morpholin-4-yl)pyrimidin-4-yl]methoxy}phenyl)propanoic acid]	0.009	153.8	
4.8e-09		Cc1c(-c2c(-c3ccco3)sc3ncnc(OC(Cc4ccccc4OCc4ccnc(OCC5CC5)n4)C(=O)O)c23)ccc(OCCN2CCN(C)CC2)c1Cl [Example 256, (2R)-2-{[(5Sa)-5-{3-chloro-2-methyl-4-[2-(4-methylpiperazin-1-yl)ethoxy]phenyl}-6-(furan-2-yl)thieno[2,3-d]pyrimidin-4-yl]oxy}-3-(2-{[2-(cyclopropylmethoxy)pyrimidin-4-yl]methoxy}phenyl)propanoic acid]	0.006	125.1	
	1.4e-09	Cc1c(-c2c(-c3ccc(F)cc3)sc3ncnc(OC(Cc4ccccc4OCc4ccnc(-c5ccccc5O)n4)C(=O)O)c23)ccc(OCCN2CCN(C)CC2)c1Cl [Example 722, (2R)-2-{[(5Sa)-5-{3-chloro-2-methyl-4-[2-(4-methylpiperazin-1-yl)ethoxy]phenyl}-6-(4-fluorophenyl)thieno[2,3-d]pyrimidin-4-yl]oxy}-3-(2-{[2-(2-hydroxyphenyl)pyrimidin-4-yl]methoxy}phenyl)propanoic acid]	0.023	296.6	
	1.18e-09	CCc1ccccc1-c1nccc(COc2ccccc2C[C@@H](Oc2ncnc3sc(-c4ccc(F)cc4)c(-c4ccc(OCCN5CCN(C)CC5)c(Cl)c4C)c23)C(=O)O)n1 [Example 726, (2R)-2-{[(5Sa)-5-{3-chloro-2-methyl-4-[2-(4-methylpiperazin-1-yl)ethoxy]phenyl}-6-(4-fluorophenyl)thieno[2,3-d]pyrimidin-4-yl]oxy}-3-(2-{[2-(2-ethylphenyl)pyrimidin-4-yl]methoxy}phenyl)propanoic acid]		112.5	0.011
